# In ChEMBL document CHEMBL5506024, “Multitarget μ-Opioid Receptor Agonists─Neuropeptide FF Receptor Antagonists Induce Potent Antinociception with Reduced Adverse Side Effects” (J Med Chem, 2024):
# Numbered stars: 1 amine (or outer) side, 2 acyl side, 3 side chain; on linkers, the order of the positions; unused ones are H or OH. Square brackets hold non-standard residues; d marks the D form. Peptide text beside a SMILES is read from it. Nva(5-(4-Bn-piperidin-1-yl)) = N[C@@H](CCCN1CCC(Cc2ccccc2)CC1)C(=O)O; X2 = O=C1[C@@H](N[*:1])Cc2ccccc2CN1CCCC(=O)[*:2]; X1 = O=C1[C@@H](N[*:1])Cc2ccccc2CN1CCC(=O)[*:2]; Tic(7-OH) = O=C(O)[C@@H]1Cc2ccc(O)cc2CN1; Dmt = Cc1cc(O)cc(C)c1C[C@H](N)C(=O)O; d(hArg) = N=C(N)NCCCC[C@@H](N)C(=O)O; Nlys = NCCCCNCC(=O)O; βAla = NCCC(=O)O; Sar = CNCC(=O)O
# Assays:
# Type in all cases: functional, cell-based
# Mu-type opioid receptor [1] = molecular target: T1, Mu-type opioid receptor (Homo sapiens, UniProt P35372); assay: Agonist activity at human Rluc8-tagged MOP expressed in HEK293 cells coexpressing eYFP-tagged beta-arrestin-2 assessed as beta-arrestin-2 recruitment incubated for 5 mins by luminometer analysis relative to control
# Mu-type opioid receptor [2] = molecular target: T1, Mu-type opioid receptor; assay: Agonist activity at human MOP expressed in HEK293 cells coexpressing GloSensor-20F assessed as inhibition of forskolin-induced cAMP accumulation relative to control
# Mu-type opioid receptor [3] = molecular target: T1, Mu-type opioid receptor; assay: Agonist activity at human MOP expressed in HEK293 cells coexpressing GloSensor-20F assessed as inhibition of forskolin-induced cAMP accumulation
# Mu-type opioid receptor [4] = molecular target: T1, Mu-type opioid receptor; assay: Agonist activity at human Rluc8-tagged MOP expressed in HEK293 cells coexpressing eYFP-tagged beta-arrestin-2 assessed as beta-arrestin-2 recruitment incubated for 5 mins by luminometer analysis
# T1 sequence (P35372 whole entry): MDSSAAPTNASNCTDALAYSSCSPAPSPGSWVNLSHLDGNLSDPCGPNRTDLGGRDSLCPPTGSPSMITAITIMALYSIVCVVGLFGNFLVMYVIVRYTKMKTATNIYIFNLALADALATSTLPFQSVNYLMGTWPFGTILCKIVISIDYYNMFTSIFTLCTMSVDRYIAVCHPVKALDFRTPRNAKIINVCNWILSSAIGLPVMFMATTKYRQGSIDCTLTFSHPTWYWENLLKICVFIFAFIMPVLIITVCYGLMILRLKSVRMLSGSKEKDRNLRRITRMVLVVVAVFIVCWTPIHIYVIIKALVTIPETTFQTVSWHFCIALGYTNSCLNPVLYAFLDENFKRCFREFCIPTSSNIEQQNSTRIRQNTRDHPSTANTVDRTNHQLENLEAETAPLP
Compound,Emax (Mu-type opioid receptor [1]; filed as agonist) [%],Emax (Mu-type opioid receptor [2]; filed as agonist) [%],EC50 (Mu-type opioid receptor [4]; read-out: EC50) [µM],further results
Cc1cc(O)cc(C)c1C[C@H](N)C(=O)N[C@H](CCCNC(=N)N)C(=O)N[C@H]1Cc2ccccc2CN(CCC(=O)N[C@@H](CCCN2CCC(Cc3ccccc3)CC2)C(=O)N[C@H](C(N)=O)C(C)C)C1=O (H-[Dmt][dR][X1][Nva(5-(4-Bn-piperidin-1-yl))]V-NH2),52,124,–,–
Cc1cc(O)cc(C)c1C[C@H](N)C(=O)N[C@H](CCCCN)C(=O)N[C@H]1Cc2ccccc2CN(CCC(=O)N[C@@H](CCCN2CCC(Cc3ccccc3)CC2)C(=O)N[C@@H](Cc2ccccc2)C(N)=O)C1=O (H-[Dmt][dK][X1][Nva(5-(4-Bn-piperidin-1-yl))]F-NH2),–,67,–,EC50 (Mu-type opioid receptor [3]): 0.03 µM; EC50 (Mu-type opioid receptor [4]; hek293): Not Active
Cc1cc(O)cc(C)c1C[C@H](N)C(=O)N[C@H](CCCNC(=N)N)C(=O)N[C@@H](Cc1ccccc1)C(=O)NCCC(=O)N[C@@H](CCCN1CCC(Cc2ccccc2)CC1)C(=O)N[C@@H](Cc1ccccc1)C(N)=O (H-[Dmt][dR]F[βAla][Nva(5-(4-Bn-piperidin-1-yl))]F-NH2),53,101,–,–
Cc1cc(O)cc(C)c1C[C@H](N)C(=O)N1CCC[C@@H]1C(=O)N[C@H]1Cc2ccccc2CN(CC(=O)N[C@@H](CCCN2CCC(Cc3ccccc3)CC2)C(=O)N[C@@H](Cc2ccccc2)C(N)=O)C1=O,–,85,0.162,EC50 (Mu-type opioid receptor [3]): 0.021 µM; Emax (Mu-type opioid receptor [1]): 27%
Cc1cc(O)cc(C)c1C[C@H](N)C(=O)N[C@H](CCCNC(=N)N)C(=O)N[C@H]1Cc2ccccc2CN(CC(=O)N[C@@H](CCCN2CCC(Cc3ccccc3)CC2)C(=O)N[C@@H](Cc2ccccc2)C(N)=O)C1=O,–,76,0.704,EC50 (Mu-type opioid receptor [3]): 0.0113 µM; Emax (Mu-type opioid receptor [1]): 18%
Cc1cc(O)cc(C)c1C[C@H](N)C(=O)N[C@H](CCCNC(=N)N)C(=O)N[C@@H](Cc1ccccc1)C(=O)N(C)CCC(=O)N[C@@H](CCCN1CCC(Cc2ccccc2)CC1)C(=O)N[C@@H](Cc1ccccc1)C(N)=O,–,–,0.045,EC50 (Mu-type opioid receptor [3]): 0.0089 µM
Cc1cc(O)cc(C)c1C[C@H](N)C(=O)N[C@H](CCCNC(=N)N)C(=O)N[C@H]1Cc2ccccc2CN(CCC(=O)N[C@@H](CCCN2CCC(Cc3ccccc3)CC2)C(=O)N[C@H](Cc2ccccc2)C(N)=O)C1=O,59,109,–,–
Cc1cc(O)cc(C)c1C[C@H](N)C(=O)N[C@H](CCCN1CCC(Cc2ccccc2)CC1)C(=O)N[C@H]1Cc2ccccc2CN(CCC(=O)N[C@@H](CCCN2CCC(Cc3ccccc3)CC2)C(=O)N[C@@H](Cc2ccccc2)C(N)=O)C1=O,–,–,–,Emax (Mu-type opioid receptor [2]): 35%
Cc1cc(O)cc(C)c1C[C@H](N)C(=O)N[C@H](CCCNC(=N)N)C(=O)N[C@@H](Cc1ccccc1)C(=O)N(C)[C@H](C)C(=O)N[C@@H](CCCN1CCC(Cc2ccccc2)CC1)C(=O)N[C@@H](Cc1ccccc1)C(N)=O,83,111,0.154,–
Cc1cc(O)cc(C)c1C[C@H](N)C(=O)N[C@H](CCCNC(=N)N)C(=O)N[C@H]1Cc2ccccc2CN(CCC(=O)N[C@@H](CCCN2CCC(Cc3ccccc3)CC2)C(=O)N[C@@H](Cc2ccc(O)cc2)C(N)=O)C1=O (H-[Dmt][dR][X1][Nva(5-(4-Bn-piperidin-1-yl))]Y-NH2),64,88,–,–
Cc1cc(O)cc(C)c1C[C@H](N)C(=O)N[C@H](CCCNC(=N)N)C(=O)N[C@H]1Cc2ccccc2CN(CCC(=O)N[C@@H](CCCN2CCc3ccccc3C2)C(=O)N[C@@H](Cc2ccccc2)C(N)=O)C1=O,60,98,0.025,–
Cc1cc(O)cc(C)c1C[C@H](N)C(=O)N[C@H](CCCNC(=N)N)C(=O)N[C@@H](Cc1ccccc1)C(=O)N(C)CC(=O)N[C@@H](CCCN1CCC(Cc2ccccc2)CC1)C(=O)N[C@@H](Cc1ccccc1)C(N)=O (H-[Dmt][dR]F[Sar][Nva(5-(4-Bn-piperidin-1-yl))]F-NH2),96,97,0.053,–
Cc1cc(O)cc(C)c1C[C@H](N)C(=O)N[C@H](CCCNC(=N)N)C(=O)N[C@H]1Cc2ccccc2CN(CCCC(=O)N[C@@H](CCCN2CCC(Cc3ccccc3)CC2)C(=O)N[C@@H](Cc2c[nH]c3ccccc23)C(N)=O)C1=O (H-[Dmt][dR][X2][Nva(5-(4-Bn-piperidin-1-yl))]W-NH2),–,90,–,Emax (Mu-type opioid receptor [1]): 30%
Cc1cc(O)cc(C)c1C[C@H](N)C(=O)N[C@H](CCCCNC(=N)N)C(=O)N[C@H]1Cc2ccccc2CN(CCC(=O)N[C@@H](CCCN2CCC(Cc3ccccc3)CC2)C(=O)N[C@@H](Cc2ccccc2)C(N)=O)C1=O (H-[Dmt][d(hArg)][X1][Nva(5-(4-Bn-piperidin-1-yl))]F-NH2),–,–,–,EC50 (Mu-type opioid receptor [3]): 0.024 µM; EC50 (Mu-type opioid receptor [4]; hek293): Not Active; Emax (Mu-type opioid receptor [2]): 39%
Cc1cc(O)cc(C)c1C[C@H](N)C(=O)N[C@H](CCCNC(=N)N)C(=O)N[C@H]1Cc2ccccc2CN(CCC(=O)N[C@@H](CCCN2CCC(Cc3ccccc3)CC2)C(=O)N[C@@H](CC(C)C)C(N)=O)C1=O (H-[Dmt][dR][X1][Nva(5-(4-Bn-piperidin-1-yl))]L-NH2),–,70,–,Emax (Mu-type opioid receptor [1]): 38%
Cc1cc(O)cc(C)c1C[C@@H](N)C(=O)N[C@H](CCCNC(=N)N)C(=O)N[C@@H](Cc1ccccc1)C(=O)N(C)CCC(=O)N[C@@H](CCCN1CCC(Cc2ccccc2)CC1)C(=O)N[C@@H](Cc1ccccc1)C(N)=O,49,110,–,–
N=C(N)NCCC[C@@H](NC(=O)[C@@H]1Cc2ccc(O)cc2CN1)C(=O)N[C@H]1Cc2ccccc2CN(CCC(=O)N[C@@H](CCCN2CCC(Cc3ccccc3)CC2)C(=O)N[C@@H](Cc2ccccc2)C(N)=O)C1=O (H-[Tic(7-OH)][dR][X1][Nva(5-(4-Bn-piperidin-1-yl))]F-NH2),–,46,1.34,Emax (Mu-type opioid receptor [1]): 33%
Cc1cc(O)cc(C)c1C[C@H](N)C(=O)N(CCCCN)CC(=O)N[C@H]1Cc2ccccc2CN(CCC(=O)N[C@@H](CCCN2CCC(Cc3ccccc3)CC2)C(=O)N[C@@H](Cc2ccccc2)C(N)=O)C1=O (H-[Dmt][Nlys][X1][Nva(5-(4-Bn-piperidin-1-yl))]F-NH2),–,–,–,EC50 (Mu-type opioid receptor [4]; hek293): Not Active; Emax (Mu-type opioid receptor [2]): 15%
Cc1cc(O)cc(C)c1C[C@H](N)C(=O)N[C@H](CCCNC(=N)N)C(=O)N[C@H]1Cc2ccccc2CN(CCCC(=O)N[C@@H](CCCN2CCC(Cc3ccccc3)CC2)C(=O)N[C@H](C(N)=O)C(C)C)C1=O (H-[Dmt][dR][X2][Nva(5-(4-Bn-piperidin-1-yl))]V-NH2),53,101,–,–
Cc1cc(O)cc(C)c1C[C@H](N)C(=O)N[C@H](CCCNC(=N)N)C(=O)N[C@H]1Cc2ccccc2CN(CCC(=O)N[C@@H](CCCN2CCC(Cc3ccccc3)CC2)C(=O)N[C@@H](Cc2ccccc2)C(=O)NCCC(N)=O)C1=O (H-[Dmt][dR][X1][Nva(5-(4-Bn-piperidin-1-yl))]F[βAla]-NH2),–,95,–,Emax (Mu-type opioid receptor [1]): 31%
Cc1cc(O)cc(C)c1C[C@H](N)C(=O)N[C@H](CCCNC(=N)N)C(=O)N[C@@H](Cc1ccccc1)C(=O)N(C)CC(=O)N[C@@H](CCCN1CCC(Cc2ccccc2)CC1)C(=O)N[C@H](C(N)=O)C(C)C (H-[Dmt][dR]F[Sar][Nva(5-(4-Bn-piperidin-1-yl))]V-NH2),116,110,0.059,–
Cc1cc(O)cc(C)c1C[C@H](N)C(=O)N[C@H](CCCNC(=N)N)C(=O)N[C@H]1Cc2ccccc2CN(CCC(=O)N[C@H](CCCN2CCC(Cc3ccccc3)CC2)C(=O)N[C@@H](Cc2ccccc2)C(N)=O)C1=O,76,95,0.178,EC50 (Mu-type opioid receptor [3]): 0.014 µM
Cc1cc(O)cc(C)c1C[C@H](N)C(=O)N[C@H](CCCNC(=N)N)C(=O)N[C@H]1Cc2ccccc2CN(CCCC(=O)N[C@@H](CCCN2CCC(Cc3ccccc3)CC2)C(=O)N[C@@H](Cc2ccccc2)C(N)=O)C1=O (H-[Dmt][dR][X2][Nva(5-(4-Bn-piperidin-1-yl))]F-NH2),–,108,–,Emax (Mu-type opioid receptor [1]): 31%
Cc1cc(O)cc(C)c1C[C@H](N)C(=O)N[C@H](CCCNC(=N)N)C(=O)N[C@H]1Cc2c(ccc3ccccc23)CN(CCC(=O)N[C@@H](CCCN2CCC(Cc3ccccc3)CC2)C(=O)N[C@@H](Cc2ccccc2)C(N)=O)C1=O,60,111,0.056,EC50 (Mu-type opioid receptor [3]): 0.0053 µM
Cc1cc(O)cc(C)c1C[C@H](N)C(=O)N[C@H](CCCNC(=N)N)C(=O)N[C@H]1Cc2ccccc2CN(CCC(=O)N[C@@H](CCCN2CCC(Cc3ccccc3)CC2)C(=O)N[C@@H](Cc2c[nH]c3ccccc23)C(N)=O)C1=O (H-[Dmt][dR][X1][Nva(5-(4-Bn-piperidin-1-yl))]W-NH2),42,81,–,–
Cc1cc(O)cc(C)c1C[C@H](N)C(=O)N[C@H](CCCNC(=N)N)C(=O)N[C@@H](Cc1ccccc1)C(=O)N(C)[C@@H](C)C(=O)N[C@@H](CCCN1CCC(Cc2ccccc2)CC1)C(=O)N[C@@H](Cc1ccccc1)C(N)=O,87,99,0.092,EC50 (Mu-type opioid receptor [3]): 0.017 µM
CC[C@H](C)[C@H](NC(=O)[C@H](CCCN1CCC(Cc2ccccc2)CC1)NC(=O)CCN1Cc2ccccc2C[C@H](NC(=O)[C@@H](CCCNC(=N)N)NC(=O)[C@@H](N)Cc2c(C)cc(O)cc2C)C1=O)C(N)=O (H-[Dmt][dR][X1][Nva(5-(4-Bn-piperidin-1-yl))]I-NH2),49,110,–,–
Cc1cc(O)cc(C)c1C[C@H](N)C(=O)N[C@H](CCCNC(=N)N)C(=O)N[C@H](Cc1ccccc1)C(=O)N(C)CCC(=O)N[C@@H](CCCN1CCC(Cc2ccccc2)CC1)C(=O)N[C@@H](Cc1ccccc1)C(N)=O,–,65,–,EC50 (Mu-type opioid receptor [3]; hek293): 0.18 µM
